Values quoted from earlier work in patent publication US8318954B2, “Cleavable carnitine compound” (Nou Life Sciences, Inc., priority 2006, dated 2012).
“Also recorded” adds a separate entry of the source. Read-outs that look alike come from different tables or passages of the source.

Key:
mice and rats = details: cited from earlier work
[1] = test system: rats with unilateral sciatic nerve division; details: cited from earlier work
[2] = test system: rats with unilateral sciatic nerve division; details: 50 mg/kg/day i.p. for 6 weeks; compared to no treatment; cited from earlier work
chinchilla laniger = details: cited from earlier work
[3] = test system: subcutaneous adipocytes in rats; details: long-term administration, rat; cited from earlier work
diabetic rats [4] = details: diabetic rat, 30 days after sciatic nerve cutting; diet: 200 mg/kg acetyl L-carnitine, 200 mg/kg carnitine mixture, 50 mg/kg α-lipoic acid daily; cited from earlier work
diabetic rats [5] = details: streptozocin diabetic rats, sciatic nerve; amount administered not specified; cited from earlier work
Wobbler mice = details: twenty days oral, acetyl L-carnitine 200 mg/kg, carnitine mixture 200 mg/kg, α-lipoic acid 50 mg/kg; cited from earlier work
[6] = test system: patients having diabetic neuropathy; details: cited from earlier work
[7] = three weeks after noise exposure

SMILES: CC(=O)O[C@H](CC(=O)[O-])C[N+](C)(C)C [Acetyl-L-carnitine]
- dose that can be parenterally administered (mice and rats; parenteral, mice and rats): up to 250 mg/kg
- tolerability on prolonged administration (mice and rats; via the diet, 30 consecutive days, 200 mg/kg acetyl L-carnitine together with 100 mg/kg alpha lipoic acid): well tolerated
- number of TUNEL-positive neurons ([1]; 2 weeks after axotomy, high-dose 50 mg/kg/day parenteral, 50 mg/kg/day): 3 /group
- number of TUNEL-positive neurons ([1]; 2 weeks after axotomy, high-dose 50 mg/kg/day parenteral, listed as ALCAR, 50 mg/kg/day): significantly reduced
- neuron loss ([1]; 2 weeks after axotomy, high-dose 50 mg/kg/day, 50 mg/kg/day): 2%
- neuron loss ([1]; 2 weeks after axotomy, high-dose 50 mg/kg/day, listed as ALCAR, 50 mg/kg/day): significantly reduced
- number of TUNEL-positive neurons ([1]; 2 weeks after axotomy, low-dose 10 mg/kg/day parenteral): 6 /group
- neuron loss ([1]; 2 weeks after axotomy, low-dose 10 mg/kg/day): 0%
- neuron loss ([1]; two months after axotomy, high-dose 50 mg/kg/day): −4%
- immunostaining for Schwann cells, percentage area [2]: 86 % increase
- immunostaining for Schwann cells, total area [2]: 111 % increase
- immunostaining for nerve fibres, percentage area [2]: 229 % increase
- immunostaining for nerve fibres, total area [2]: 264 % increase
- regeneration into the distal stump, percentage area [2]: 3,034 % increase
- regeneration into the distal stump, total area [2]: 2,242 % increase
- outer hair cell loss (chinchilla laniger; 4- to 10-kHz region): < 10%
- inner and outer hair cell loss (chinchilla laniger; in vivo): reduced
- threshold shift at 2 to 4 kHz (chinchilla laniger; [7]): no threshold shift
- threshold shifts at 6 to 8 kHz (chinchilla laniger; [7]): < 10 dB
- size of subcutaneous adipocytes in aging skin [3]: blocks progressive increase in size
- Density of tibial nerve degenerate elements (diabetic rats [4]): 0.16 ± 0.02 per 100 nm^2
- Number of tibial nerve degenerate elements (diabetic rats [4]): 560 ± 61
- NMCV (diabetic rats [5]): 34.5 ± 2.1 m/sec
- % increase in running time (Wobbler mice): 35 ± 3.2%
- tolerability ([6]; 1000 mg/day i.m. 10 days, then 2000 mg/day oral 355 days, 12 month period): well tolerated
- nerve conduction velocity NCV ([6]; at 6- and 12 months, compared to placebo): statistically significant improvement
- Amplitude ([6]; at 12 months, patients with impaired electrophysiological parameters at baseline, compared to placebo): statistically significant improvement
- pain (visual analogue scale) ([6]; compared to placebo): significant reduction; also recorded: statistically significant improvement
